From patent publication US20230015478A1, “GLP-1 RECEPTOR AGONISTS HAVING IMPROVED PHARMACOLOGICAL AND DRUG DELIVERY PROPERTIES” (priority 2021, published 2023)
Where two headings read alike, the source gives them in different places. Blank lines part the entries; values can stand above or below the molecule they belong to. Square brackets hold non-standard residues; d marks the D form. Peptide text beside a SMILES is read from it. Bip = N[C@@H](Cc1ccc(-c2ccccc2)cc1)C(=O)O; Phe(2-CN) = N#Cc1ccccc1C[C@H](N)C(=O)O; Phe(2-F) = N[C@@H](Cc1ccccc1F)C(=O)O; Aib = CC(C)(N)C(=O)O

Biological target: T1, hGLP1 receptor (Homo sapiens, UniProt P43220)
T1 construct: expressed in transfected cells; host or cells: HEK (human embryonic kidney) cells co-expressing hGLP1 receptor and CRE-Luciferase
Test: cAMP HTRF agonist assay in HEK cells co-expressing hGLP1 receptor and CRE-Luciferase
Type: cell-based
How it was run: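 HEK cells co-expressing hGLP1R and CRE-luciferase, 1000 cells/well in DPBS with 500 μM IBMX, exposed to peptides or exendin-4 reference for 30 min; 11-point 1:3 series from top 1.0 μM. cAMP measured by HTRF (665/615 nm) after 1 h at room temperature; EC50 from 4-parameter logistic fit.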

T1 sequence (P43220 24-463): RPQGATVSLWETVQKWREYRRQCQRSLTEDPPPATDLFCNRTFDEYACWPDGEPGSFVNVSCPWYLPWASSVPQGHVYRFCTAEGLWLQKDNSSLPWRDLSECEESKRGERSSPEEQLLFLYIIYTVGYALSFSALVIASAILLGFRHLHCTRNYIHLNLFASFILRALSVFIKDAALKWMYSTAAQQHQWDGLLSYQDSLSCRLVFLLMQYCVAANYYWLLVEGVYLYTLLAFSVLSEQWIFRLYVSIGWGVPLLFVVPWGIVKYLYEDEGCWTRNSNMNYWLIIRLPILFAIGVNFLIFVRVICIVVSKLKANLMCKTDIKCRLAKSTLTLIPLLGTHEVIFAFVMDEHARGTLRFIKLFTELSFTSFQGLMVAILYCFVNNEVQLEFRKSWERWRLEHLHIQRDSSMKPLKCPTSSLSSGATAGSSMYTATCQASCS

Molecule: C[C@H](NC(=O)[C@H](CCC(=O)O)NC(=O)C(C)(C)NC(=O)[C@@H](N)Cc1c[nH]cn1)C(=O)N[C@H](C(=O)N[C@@H](Cc1ccccc1F)C(=O)N[C@H](C(=O)N[C@@H](CO)C(=O)N[C@@H](CC(=O)O)C(=O)N[C@@H](Cc1ccc(-c2ccccc2)cc1)C(=O)N[C@@H](Cc1ccc(-c2ccccc2)cc1)C(N)=O)[C@@H](C)O)[C@@H](C)O [3-23, H2N-His-Aib-Glu-Ala-Thr-Phe(2F)-Thr-Ser-Asp-Bip-Bip-C(O)NH2] (H-H[Aib]EAT[Phe(2-F)]TSD[Bip][Bip]-NH2)
- EC50 (Table 2, cell marked (0% albumin), read-out: cAMP EC50, nM (0% albumin)): 347 nM

Molecule: C[C@@H](O)[C@H](NC(=O)CNC(=O)[C@H](CCC(=O)O)NC(=O)C(C)(C)NC(=O)[C@@H](N)Cc1c[nH]cn1)C(=O)N[C@@H](Cc1ccccc1C#N)C(=O)N[C@H](C(=O)N[C@@H](CO)C(=O)N[C@@H](CC(=O)O)C(=O)N[C@@H](Cc1ccc(-c2ccccc2)cc1)C(=O)N[C@@H](Cc1ccc(-c2ccccc2)cc1)C(N)=O)[C@@H](C)O [3-6, H2N-His-Aib-Glu-Gly-Thr-Phe(2-CN)-Thr-Ser-Asp-Bip-Bip-C(O)NH2] (H-H[Aib]EGT[Phe(2-CN)]TSD[Bip][Bip]-NH2)
- EC50 (cAMP EC50, nM (0.1% albumin), Table 1, 0.1% albumin): 33.1 nM

Molecule: C[C@H](NC(=O)[C@@H](NC(=O)CNC(=O)[C@H](CCC(=O)O)NC(=O)C(C)(C)NC(=O)[C@@H](N)Cc1c[nH]cn1)[C@@H](C)O)C(=O)N[C@H](C(=O)N[C@@H](CO)C(=O)N[C@@H](CC(=O)O)C(=O)N[C@@H](Cc1ccc(-c2ccccc2)cc1)C(=O)N[C@@H](Cc1ccc(-c2ccccc2)cc1)C(N)=O)[C@@H](C)O [3-19, H2N-His-Aib-Glu-Gly-Thr-Ala-Thr-Ser-Asp-Bip-Bip-C(O)NH2] (H-H[Aib]EGTATSD[Bip][Bip]-NH2)
- EC50 (Table 1, cells marked (0% albumin), read-out: cAMP EC50, nM (0% albumin)): 2800 nM

Further lines, results first:

- EC50 (cAMP EC50, nM (0.1% albumin), Table 2, 0.1% albumin): 28.1 nM
Molecule: C[C@H](NC(=O)CNC(=O)[C@H](CCC(=O)O)NC(=O)C(C)(C)NC(=O)[C@@H](N)Cc1c[nH]cn1)C(=O)N[C@@H](Cc1ccccc1F)C(=O)N[C@H](C(=O)N[C@@H](CO)C(=O)N[C@@H](CC(=O)O)C(=O)N[C@@H](Cc1ccc(-c2ccccc2)cc1)C(=O)N[C@@H](Cc1ccc(-c2ccccc2)cc1)C(N)=O)[C@@H](C)O [3-24, H2N-His-Aib-Glu-Gly-Ala-Phe(2-F)-Thr-Ser-Asp-Bip-Bip-C(O)NH2] (H-H[Aib]EGA[Phe(2-F)]TSD[Bip][Bip]-NH2)

- EC50 (cAMP EC50, nM (0.1% albumin), Table 4, 0.1% albumin): > 1000 nM
Molecule: C[C@@H](O)[C@H](NC(=O)CNC(=O)[C@H](CCC(=O)O)NC(=O)C1(C)CCCN1C(=O)[C@@H](N)Cc1c[nH]cn1)C(=O)NC(C)(Cc1ccccc1F)C(=O)N[C@H](C(=O)N[C@@H](CO)C(=O)N[C@@H](CC(=O)O)C(=O)NC(C)(C)C(=O)N[C@@H](Cc1ccc(-c2ccccc2)cc1)C(N)=O)[C@@H](C)O (stereo partly drawn) [3-60, H2N-His-α-MePro-Glu-Gly-Thr-α-MePhe(2-F)-Thr-Ser-Asp-Aib-Bip-C(O)NH2]

- EC50 (read-out: cAMP EC50, nM (0.1% albumin), Table 6, 0.1% albumin): 0.008 nM
Molecule: H2N-His-α-MePro-Glu-Gly-Thr-α-MePhe(2-F)-Thr-Ser-Asp-FN3(C18 acid)-Bib-C(O)NH2 [4-71]
